Source: PMC11432405, “Development of Novel Alaninamide Derivatives with Anticonvulsant Activity and Favorable Safety Profiles in Animal Models” (International Journal of Molecular Sciences, 2024)
Read-outs that look alike come from different tables or passages of the source.

Columns and labels:
[1] = biological target: T1, human recombinant MAO-B (Homo sapiens, UniProt P27338); assay: fluorometric monoamine oxidase B inhibition assay; assay type: biochemical; settings: for inhibition at 1 µM: read-out: % inhibition MAO-B (1 µM), mean of two independent experiments
T1 construct: purchased Sigma Aldrich
T1 sequence (P27338 1-520): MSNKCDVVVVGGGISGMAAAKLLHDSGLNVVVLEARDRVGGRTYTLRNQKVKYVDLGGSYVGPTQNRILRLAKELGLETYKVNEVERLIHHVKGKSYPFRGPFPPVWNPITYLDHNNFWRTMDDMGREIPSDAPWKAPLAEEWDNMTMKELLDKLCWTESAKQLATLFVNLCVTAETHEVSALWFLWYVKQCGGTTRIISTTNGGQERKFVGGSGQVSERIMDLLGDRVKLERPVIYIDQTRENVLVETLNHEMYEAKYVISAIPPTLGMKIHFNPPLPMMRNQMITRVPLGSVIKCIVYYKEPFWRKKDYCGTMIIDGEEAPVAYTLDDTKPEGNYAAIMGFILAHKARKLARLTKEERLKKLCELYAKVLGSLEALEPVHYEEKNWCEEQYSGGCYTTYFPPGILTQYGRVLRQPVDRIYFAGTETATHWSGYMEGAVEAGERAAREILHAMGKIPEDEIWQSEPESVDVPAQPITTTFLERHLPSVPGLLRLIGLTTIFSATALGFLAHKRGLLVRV

[2] = system: maximal electroshock (MES) seizures; assay: maximal electroshock seizure (MES) test; assay type: in vivo, mice; settings: mice i.p.; for responders at 100 mg/kg / ED50: Mus musculus, ip; for ED50: TPE 0.5 h, 95% confidence interval in parentheses
Description: Epilepsy is a multifaceted disorder with often unclear etiology, making it challenging to pinpoint a specific receptor or transporter as the definitive target. Consequently, the discovery of ASMs deviates from the traditional drug development pathway, which typically involves designing a new molecule, docking it with a specific biological target, and performing chemical synthesis, followed by in vitro assays. Instead, numerous animal seizure models, which mirror various types of human epileptic seizures, are initially employed in the process of new ASM discovery. This approach has been instrumental in the identification and introduction into clinical practice of all currently used ASMs and continues to be a cornerstone in the preclinical development of new anticonvulsants. The primary justification for prioritizing in vivo screening over in vitro binding and functional studies is the complex and often not fully elucidated mechanisms of action of known ASMs. This approach also facilitates the discovery of compounds with novel, previously undefined pharmacodynamic properties. In light of this, we evaluated all compounds obtained in the current studies using the MES test, which remains one of the most valuable preclinical screening models for tonic-clonic seizures, as well as partial convulsions with or without secondary generalization in humans. This test allows for a comprehensive assessment of the anticonvulsant efficacy of new ASM candidates and is considered highly relevant for predicting their therapeutic efficacy in human epilepsy. The MES test was carried out in mice following the intraperitoneal (i.p.) administration of a screening dose of 100 mg/kg in a group consisting of four animals. The efficacy of the compounds synthesized was evaluated at 0.5 h pretreatment time.
Fresh solutions were prepared daily for each experimentation session.
Each group consisted of six animals.

[3] = system: 6 Hz (44 mA) seizures; settings: TD50 rotarod / ED50 6 Hz (44 mA); cited from earlier work
[4] = system: 6 Hz (32 mA) seizures; settings: cited from earlier work
[5] = system: maximal electroshock (MES) seizures; settings: TD50 rotarod / ED50 MES; cited from earlier work
[6] = system: 6 Hz (32 mA) seizures; assay: 6 Hz (32 mA) psychomotor seizure model; settings: for responders at 100 mg/kg / ED50: Mus musculus, ip; for responders at 100 mg/kg: read-out: protection (efficacy) in the 6 Hz (32 mA) screening; for ED50: read-out: ED50 6 Hz (32 mA), mice i.p., TPE 0.5 h, 95% confidence interval in parentheses;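 on all read-outs here: adult male albino Swiss CD-1 mice, each used once, with compounds suspended in 1% Tween 80 in water as vehicle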
[7] = rotarod test (acute neurological toxicity, motor coordination); assay type: in vivo; settings: male, CD-1 (albino Swiss), mouse, in vivo, ip, mice i.p.
Description: The protective indexes (PIs) were then calculated as the ratio of TD50 to ED50 (PI = TD50/ED50), providing an assessment of the therapeutic window for each compound.

[8] = 100 mg/kg, 0.5 h, four mice, read-out: protection (efficacy) in the MES screening
[9] = dose of 100 mg/kg, pretreatment time 0.5 h, read-out: MES test: number of mice protected / number of mice tested (converted)

Row | SMILES | inhibition at 1 µM [1] [%] | melting point [°C] | responders at 100 mg/kg [2, 8] [%] | responders at 100 mg/kg [2, 9] [%] | responders at 100 mg/kg ([6]; 0.5 h) [%] | also measured
1 | CC(C)(C(=O)NCc1ccc(OCc2ccccc2)cc1)N1C(=O)CCC1=O [Compound 21, N-(4-(benzyloxy)benzyl)-2-(2,5-dioxopyrrolidin-1-yl)-2-methylpropanamide] | 0 | 170.3 to 171.2 | ≤ 25 | 25 | – | –
2 | CCCC(CCC)C(=O)O [VPA, valproic acid] | – | – | – | – | – | PI (TD50/ED50) 6 Hz (44 mA) [3]: 2.3; PI (TD50/ED50) 6 Hz ([4]; TD50 rotarod / ED50 6 Hz (32 mA)): 3.3; ED50 6 Hz (32 mA) ([4]; mice i.p., TPE 0.5 h (LEV 1.0 h)): 130.6 (117.6–145.2) mg/kg; PI (TD50/ED50) MES [5]: 1.7
3 | CC(C(=O)NCc1ccc(OCc2ccccc2C(F)(F)F)cc1)N1CCCC1=O (stereo not drawn) [Compound 37, 2-(2-oxopyrrolidin-1-yl)-N-(4-((2-(trifluoromethyl)benzyl)oxy)benzyl)propanamide] | 0 | 121.8 to 122.5 | – | 100 | 50 | –
4 | CC(C(=O)NCc1ccc(OCc2ccccc2F)cc1)N1C(=O)CCC1=O (stereo not drawn) [Compound 6, 2-(2,5-dioxopyrrolidin-1-yl)-N-(4-((2-fluorobenzyl)oxy)benzyl)propanamide] | – | – | – | – | – | % inhibition MAO-B (1 µM) ([1]; mean of two independent experiments): 0%; protection (efficacy) in the 6 Hz (32 mA) screening ([6]; mice i.p., 100 mg/kg, 0.5 h, four mice): 100%; 6 Hz (32 mA) test: number of mice protected / number of mice tested ([6]; mice i.p., dose of 100 mg/kg, pretreatment time 0.5 h): 4/4; protection (efficacy) in the MES screening ([2]; 100 mg/kg, 0.5 h, four mice): 100%; MES test: number of mice protected / number of mice tested ([2]; dose of 100 mg/kg, pretreatment time 0.5 h): 4/4
5 | CC(C(=O)NCc1cccc(OCc2ccccc2)c1)N1C(=O)CCC1=O (stereo not drawn) [Compound 22, N-(3-(benzyloxy)benzyl)-2-(2,5-dioxopyrrolidin-1-yl)propanamide] | 0 | 105.3 to 106.1 | ≤ 25 | 25 | – | –
6 | CC(C(=O)NCc1ccc(OCc2ccc(C(F)(F)F)cc2)cc1)N1C(=O)CCC1=O (stereo not drawn) [Compound 14, 2-(2,5-dioxopyrrolidin-1-yl)-N-(4-((4-(trifluoromethyl)benzyl)oxy)benzyl)propanamide] | 0 | – | 50 | 50 | 50 | –
7 | Cc1ccc(COc2ccc(CNC(=O)C(C)N3C(=O)CCC3=O)cc2)cc1 (stereo not drawn) [Compound 20, 2-(2,5-dioxopyrrolidin-1-yl)-N-(4-((4-methylbenzyl)oxy)benzyl)propanamide] | 0 | – | ≤ 25 | 0 | – | –
8 | Cc1cccc(COc2ccc(CNC(=O)C(C)N3C(=O)CCC3=O)cc2)c1 (stereo not drawn) [Compound 19, 2-(2,5-dioxopyrrolidin-1-yl)-N-(4-((3-methylbenzyl)oxy)benzyl)propanamide] | 0 | – | ≤ 25 | 25 | 25 | –
9 | Cc1ccccc1COc1ccc(CNC(=O)C(C)N2C(=O)CCC2=O)cc1 (stereo not drawn) [Compound 18, 2-(2,5-dioxopyrrolidin-1-yl)-N-(4-((2-methylbenzyl)oxy)benzyl)propanamide] | 0 | 126.1 to 126.8 | 75 | 75 | 75 | TD50 at 0.5 h [7]: > 300 mg/kg; ED50 ([6]; 0.5 h): 57.7 mg/kg; ED50 [2]: 89.2 mg/kg
10 | CC(C(=O)NCc1ccc(OCc2ccccc2C(F)(F)F)cc1)N1C(=O)CCC1=O (stereo not drawn) [Compound 12, 2-(2,5-dioxopyrrolidin-1-yl)-N-(4-((2-(trifluoromethyl)benzyl)oxy)benzyl)propanamide] | 0 | 122.9 to 123.4 | 100 | 100 | 75 | TD50 at 0.5 h [7]: > 300 mg/kg; ED50 ([6]; 0.5 h): 52.7 mg/kg; ED50 [2]: 46.2 mg/kg
